Measurements taken from the NIST ThermoML archive (doi:10.1016/j.tca.2012.03.022).

Test: molar heat capacity at constant pressure; wn = mass fraction of the nth substance listed
Details: 101 kPa, Crystal, Small sample (50 mg) DSC

[W] [tungsten] + [Cu]
molar heat capacity at constant pressure [J/K/mol]
Details | 295.15 K | 373.15 K | 473.15 K | 573.15 K | 673.15 K
w1 = 0.728 | 25.9 | 26.59 | 27.11 | 27.43 | 27.89
w1 = 0.761 | 24.67 | 25.12 | 25.61 | 25.91 | 26.04
w1 = 0.837 | 26.96 | 27.52 | 28.07 | 28.41 | 28.66
w1 = 0.889 | 25.66 | 26.21 | 26.68 | 26.95 | 27.19
w1 = 0.913 | 25.81 | 26.08 | 26.45 | 26.75 | 26.88
